Results published in PMC9916658, “Design and Synthesis of New Quinazolin-4-one Derivatives with Negative mGlu7 Receptor Modulation Activity and Antipsychotic-Like Properties” (International Journal of Molecular Sciences, 2023).

How the values were obtained:
CYP2B6 = molecular target: T1, CYP2B6 (Homo sapiens, UniProt P20813); assay: CYP inhibition assay, recombinant enzyme, fluorescence; assay type: in vitro ADME; conditions: test concentrations 1.1, 3.3 and 10 μM; read-out: Cytochrome P450 2B6 IC50
T1 construct: purchased BD Biosciences
T1 sequence (P20813 1-491): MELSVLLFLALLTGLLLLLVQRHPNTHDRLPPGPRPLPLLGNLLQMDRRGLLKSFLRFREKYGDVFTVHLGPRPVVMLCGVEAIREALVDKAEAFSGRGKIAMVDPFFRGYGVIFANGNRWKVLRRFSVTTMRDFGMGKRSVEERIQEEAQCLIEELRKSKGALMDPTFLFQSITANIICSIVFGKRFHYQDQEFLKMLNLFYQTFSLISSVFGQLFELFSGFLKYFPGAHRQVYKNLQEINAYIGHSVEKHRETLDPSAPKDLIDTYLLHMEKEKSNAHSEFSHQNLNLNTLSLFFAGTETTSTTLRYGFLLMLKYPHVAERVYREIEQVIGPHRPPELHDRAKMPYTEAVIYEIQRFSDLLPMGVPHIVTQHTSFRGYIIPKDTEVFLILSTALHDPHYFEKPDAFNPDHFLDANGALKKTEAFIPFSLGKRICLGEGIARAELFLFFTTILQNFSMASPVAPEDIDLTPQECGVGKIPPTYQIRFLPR
Experimental: CYP inhibition was performed with the recombinant enzymes CYP1A2, CYP2B6, CYP2C9, CYP2C19, CYP2D6, and CYP3A4 obtained from BD Biosciences. Compounds for CYP inhibition testing were prepared as 10 mM stock solutions in DMSO. Isoform-specific substrates were incubated at 37 °C individually with P450 enzymes (Table 5) and a range of test compound concentrations (1.1, 3.3 and 10 μM) in duplicate. Each isoform was tested separately with one reference compound, a known positive control inhibitor. During preincubation, the 96-well black plates were scanned with a fluorescence plate reader to eliminate false results originating from the autofluorescence of the test compounds. At the end of the incubation, product formation was monitored with fluorescence detection. A decrease in the formation of the metabolite compared to the “no inhibition” control samples was used to calculate the IC50 value.

human mGlu4 receptor = molecular target: T2, human mGlu4 receptor (Homo sapiens, UniProt Q14833); assay: mGlu4 receptor selectivity, cAMP accumulation screening at 10 µM; assay type: cell-based
T2 construct: expressed in transfected cells; host or cells: T-REx 293 (tetracycline-inducible)
Experimental: The cell lines with the tetracycline-inducible expression of human metabotropic receptors 4, 7, and 8 were described in detail by Chruścicka et al. (mGlu4 receptor NM_000841, mGlu7 receptor NM_000844.2, and mGlu8 receptor NM_000845). Cells were grown under standard cell culture conditions (37 °C, 5% CO2) in DMEM supplemented with 10% tetracycline-free FBS. The expression was induced through the addition of tetracycline to the culture medium at 0.75 μg/mL.
The determination of the intracellular cAMP through homogeneous time-resolved fluorescence (HTRF) was described in detail previously. […] The intracellular concentration of cyclic AMP was measured by means of a cAMP Gi HTRF kit from Cisbio, according to the manufacturer’s instructions. After 1 h of incubation at room temperature, the fluorescence at 620 nm and 665 nm was read (Tecan Infinite M1000). The results were calculated as the 665 nm/620 nm ratio multiplied by 10^4. […] Data were analyzed using GraphPad Prism version 5.04 for Windows (GraphPad Software, San Diego, USA).
Firstly, all compounds were screened at 10 μM using three cell lines expressing the mGlu4/7/8 receptor to evaluate selectivity. […] For compounds that passed the screening procedure, the dose–response curve in the presence of LSP4-2022 in 5 μM was evaluated compared to reference NAM ADX71743. […]

T2 sequence (Q14833 33-912): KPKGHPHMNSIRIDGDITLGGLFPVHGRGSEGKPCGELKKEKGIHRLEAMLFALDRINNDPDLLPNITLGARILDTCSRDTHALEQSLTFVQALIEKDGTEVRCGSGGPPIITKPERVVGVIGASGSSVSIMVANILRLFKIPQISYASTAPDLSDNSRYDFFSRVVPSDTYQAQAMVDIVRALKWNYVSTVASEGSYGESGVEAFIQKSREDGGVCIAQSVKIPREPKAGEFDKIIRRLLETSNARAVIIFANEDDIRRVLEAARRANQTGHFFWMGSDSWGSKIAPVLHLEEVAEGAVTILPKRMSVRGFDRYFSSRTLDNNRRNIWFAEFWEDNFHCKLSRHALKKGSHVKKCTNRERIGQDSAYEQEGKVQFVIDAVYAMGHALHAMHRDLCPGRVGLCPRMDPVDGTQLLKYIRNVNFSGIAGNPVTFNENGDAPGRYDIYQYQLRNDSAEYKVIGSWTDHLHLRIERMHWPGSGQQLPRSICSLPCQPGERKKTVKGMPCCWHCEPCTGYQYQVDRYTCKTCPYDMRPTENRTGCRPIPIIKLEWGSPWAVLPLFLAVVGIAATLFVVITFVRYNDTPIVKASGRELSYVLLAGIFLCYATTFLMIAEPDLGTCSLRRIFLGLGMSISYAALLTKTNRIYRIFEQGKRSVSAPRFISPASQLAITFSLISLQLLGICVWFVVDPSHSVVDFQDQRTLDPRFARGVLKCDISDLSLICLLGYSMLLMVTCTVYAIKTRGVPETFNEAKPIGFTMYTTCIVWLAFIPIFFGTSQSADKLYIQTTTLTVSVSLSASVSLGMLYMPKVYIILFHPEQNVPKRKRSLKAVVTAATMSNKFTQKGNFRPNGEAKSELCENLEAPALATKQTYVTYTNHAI

Row | IC50 (CYP2B6) [µM] | mGlu4 NAM activity (human mGlu4 receptor; at 10 µM) [%] | selectivity over mGlu4 (human mGlu4 receptor; group III mGlu receptors) | Structure (SMILES)
1 | > 10 | 19.6 |  | Cn1c(-c2ccccc2Cl)nc2ccc(-c3ccccc3)cc2c1=O [ALX-065, 2-(2-chlorophenyl)-3-methyl-6-phenylquinazolin-4(3H)-one]
2 | > 10 |  | selective | COc1cccc(-c2ccc3nc(-c4ccccc4Cl)n(C)c(=O)c3c2)c1OC [ALX-171, 2-(2-chlorophenyl)-6-(2,3-dimethoxyphenyl)-3-methylquinazolin-4(3H)-one]
